Source: patent US5216175A, “Antimalarial analogs of artemisinin” (SRI International, priority 1990, dated 1993)
In brackets after ≈: the same amount, converted by molar mass. Where two headings read alike, the source gives them in different places.

Experiments:
P. falciparum D-6 clone = test: In vitro antimalarial activity, P. falciparum D-6 clone; format: cell-based; settings: D-6 clone; for IC50: Plasmodium falciparum
Text: (§1) The analogs have been segregated arbitrarily here into those compounds in which the tetracyclic skeleton is intact (Table 2) and various ring-cleaved analogs (Table 3). The activities of the conventional malaria therapeutics chloroquine, mefloquine, and pyrimethamine is included for comparison.

P. falciparum W-2 clone = test: In vitro antimalarial activity, P. falciparum W-2 clone; format: cell-based; settings: W-2 clone; for IC50: Plasmodium falciparum
Text: as §1

[1] = Table 2, drug-resistant strains of P. falciparum, read-out: IC50 D-6 clone
[2] = Table 2, drawing 57 (artemisinin) = 100
[3] = Table 2, drug-resistant strains of P. falciparum, read-out: IC50 W-2 clone

CCCCCCCCCCCCCC[C@H]1C(=O)O[C@@H]2O[C@@]3(C)CC[C@H]4[C@H](C)CC[C@@H]1[C@@]24OO3 [compound 2818]
IC50 (P. falciparum D-6 clone; [1]): 81.3 ng/mL (≈ 0.175 µM) | Relative potency (D-6 clone) (P. falciparum D-6 clone; [2]): .0017 | IC50 (P. falciparum W-2 clone; [3]): 63.9 ng/mL (≈ 0.138 µM) | Relative potency (W-2 clone) (P. falciparum W-2 clone; [2]): .0017

C[C@@H]1CC[C@H]2CC(=O)N(CC(=O)O)[C@@H]3O[C@@]4(C)CC[C@@H]1[C@@]23OO4 [compound 2804]
IC50 (P. falciparum D-6 clone; [1]): 122 ng/mL (≈ 0.376 µM) | Relative potency (D-6 clone) (P. falciparum D-6 clone; [2]): 5.5

CCCC(=O)OCC(CC)(CC)OOC(C)(C)C [compound 4597, 2-t-Butylperoxy-2-ethylbutyl Butyrate]
In vitro IC50 D-6 clone (P. falciparum D-6 clone; Table 3, tricyclic analogs): Inactive | In vitro IC50 W-2 clone (P. falciparum W-2 clone; Table 3, tricyclic analogs): Inactive

C[C@@H]1CC[C@H]2[C@@H](CC(=O)O)C(=O)O[C@@H]3O[C@@]4(C)CC[C@@H]1[C@]32OO4 [compound 4595]
IC50 (P. falciparum D-6 clone; [1]): 830 ng/mL (≈ 2.54 µM) | Relative potency (D-6 clone) (P. falciparum D-6 clone; [2]): 0.15 | IC50 (P. falciparum W-2 clone; [3]): 151 ng/mL (≈ 0.463 µM) | Relative potency (W-2 clone) (P. falciparum W-2 clone; [2]): 0.3

C[C@@H]1CC[C@H]2[C@@H](C)C(=O)O[C@@H]3O[C@@]4(C)CC[C@@H]1[C@]32OO4 [(+)-Artemisinin, reference compound]
IC50 (P. falciparum D-6 clone; [1]): 4.44 ng/mL (≈ 0.0157 µM) | Relative potency (D-6 clone) (P. falciparum D-6 clone; [2]): 100 | IC50 (P. falciparum W-2 clone; [3]): 2.11 ng/mL (≈ 0.00747 µM) | Relative potency (W-2 clone) (P. falciparum W-2 clone; [2]): 100

C[C@@H]1CC[C@H]2C(C)(C)C(=O)O[C@@H]3O[C@@]4(C)CC[C@@H]1[C@]32OO4 [compound 2800, (+)-Octahydro-3,12-epoxy-3,6,9,9-tetramethyl-12H-pyrano [4.3-j]-1,2-benzo dioxepin-10(3H)-one]
IC50 (P. falciparum D-6 clone; [1]): 20.9 ng/mL (≈ 0.0705 µM) | Relative potency (D-6 clone) (P. falciparum D-6 clone; [2]): 2.1 | IC50 (P. falciparum W-2 clone; [3]): 25.5 ng/mL (≈ 0.0861 µM) | Relative potency (W-2 clone) (P. falciparum W-2 clone; [2]): 0.63

(+)-Hexahydro-3,3,7,10α,11β-pentamethyl-4aH,6H-1,2,4-trioxino-[ 6.5-j][2] benzopyran-6-one [compound 4594]
In vitro IC50 D-6 clone (P. falciparum D-6 clone; Table 3, tricyclic analogs): 5.35 ng/mL | Relative potency (D-6 clone) (P. falciparum D-6 clone; Table 3, tricyclic analogs): 23 | In vitro IC50 W-2 clone (P. falciparum W-2 clone; Table 3, tricyclic analogs): 2.06 ng/mL | Relative potency (W-2 clone) (P. falciparum W-2 clone; Table 3, tricyclic analogs): 24

CC(C)CC[C@H]1C(=O)O[C@@H]2O[C@@]3(C)CC[C@H]4[C@H](C)CC[C@@H]1[C@@]24OO3 [compound 2822]
IC50 (P. falciparum D-6 clone; [1]): 0.35 ng/mL (≈ 0.00103 µM) | Relative potency (D-6 clone) (P. falciparum D-6 clone; [2]): 157 | IC50 (P. falciparum W-2 clone; [3]): 0.5 ng/mL (≈ 0.00148 µM) | Relative potency (W-2 clone) (P. falciparum W-2 clone; [2]): 98

CCC(=O)OCC(CC)(CC)OOC(C)(C)C [compound 4596, 2-t-Butylperoxy-2-ethylbutyl proprionate]
In vitro IC50 D-6 clone (P. falciparum D-6 clone; Table 3, tricyclic analogs): Inactive | In vitro IC50 W-2 clone (P. falciparum W-2 clone; Table 3, tricyclic analogs): Inactive

C[C@@H]1CC[C@H]2[C@@H](C)C(=O)O[C@@H]3OC(C)(C)OO[C@@]32C1 [compound 2816]
IC50 (P. falciparum D-6 clone; Table 3, tricyclic analogs, read-out: In vitro IC50 D-6 clone): 1.29 ng/mL (≈ 0.00477 µM) | Relative potency (D-6 clone) (P. falciparum D-6 clone; Table 3, tricyclic analogs): 108 | IC50 (P. falciparum W-2 clone; Table 3, tricyclic analogs, read-out: In vitro IC50 W-2 clone): 1.46 ng/mL (≈ 0.0054 µM) | Relative potency (W-2 clone) (P. falciparum W-2 clone; Table 3, tricyclic analogs): 75

C[C@@H]1CC[C@H]2CC(=O)N(Cc3ccccc3)[C@@H]3O[C@@]4(C)CC[C@@H]1[C@@]23OO4 [compound 2803]
IC50 (P. falciparum D-6 clone; [1]): 0.45 ng/mL (≈ 0.00126 µM) | Relative potency (D-6 clone) (P. falciparum D-6 clone; [2]): 149 | IC50 (P. falciparum W-2 clone; [3]): 0.07 ng/mL (≈ 0.000196 µM) | Relative potency (W-2 clone) (P. falciparum W-2 clone; [2]): 171

(-)-Hexahydro-3,3,10a,11β-tetramethyl-4aH,6H-1,2,4-trioxino-[6.5-j]benzopyran-6-one [compound 4592]
In vitro IC50 D-6 clone (P. falciparum D-6 clone; Table 3, tricyclic analogs): 1.28 ng/mL | Relative potency (D-6 clone) (P. falciparum D-6 clone; Table 3, tricyclic analogs): 58

CC[C@H]1C(=O)O[C@@H]2O[C@@]3(C)CC[C@H]4[C@H](C)CC[C@@H]1[C@@]24OO3 [compound 4586]
times as potent as QHS against the D-6 clone (P. falciparum D-6 clone; relative to QHS): 6.17 times | IC50 (P. falciparum D-6 clone; [1]): 0.72 ng/mL (≈ 0.00243 µM) | Relative potency (D-6 clone) (P. falciparum D-6 clone; [2]): 642 | IC50 (P. falciparum W-2 clone; [3]): 0.18 ng/mL (≈ 0.000607 µM) | Relative potency (W-2 clone) (P. falciparum W-2 clone; [2]): 1226 | times as potent as QHS against the W-2 clone (P. falciparum W-2 clone; relative to QHS): 11.7 times

C[C@@]12CC[C@H]3CCC[C@H]4CC(=O)O[C@H](O1)[C@@]34OO2 (relative stereo) [compound 4580, (±)-6,9-desmethylartemisinin]
IC50 (P. falciparum D-6 clone; [1]): 33.7 ng/mL (≈ 0.133 µM) | Relative potency (D-6 clone) (P. falciparum D-6 clone; [2]): 12 | IC50 (P. falciparum W-2 clone; [3]): 3.92 ng/mL (≈ 0.0154 µM) | Relative potency (W-2 clone) (P. falciparum W-2 clone; [2]): 48
